Laboratory results as given in patent US8841321B2, “Quinoline derivatives as antibacterial agents” (Janssen Pharmaceutica NV, priority 2005, dated 2014).
≈ marks a conversion by molar mass, not a printed value.

What was measured:
[1] = test system: SPN 6305 (Streptococcus pneumoniae (ATCC6305)); assay: Microtitre plate assay, IC90 determination; format: cell-based; conditions: for IC90 (μg/ml) SPN 6305: Streptococcus pneumoniae (ATCC6305); for IC90: Streptococcus pneumoniae, ATCC6305, Streptococcus pneumoniae (ATCC6305), read-out: IC90 (μg/ml) SPN 6305
Summary of the method: (§1)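 Growth-inhibition endpoint: resazurin added 3 h after inoculation, plates incubated overnight, fluorescence at 530/590 nm after 24 h at 37 °C. Inocula of roughly 10–60 CFU per well in Mueller-Hinton medium; compounds titrated five-fold. IC90 reported as μg/ml.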

[2] = test system: STA 29213 (Staphylococcus aureus (ATCC29213)); assay: Microtitre plate assay, IC90 determination; format: cell-based; conditions: for IC90 (μg/ml) STA 29213: Staphylococcus aureus (ATCC29213); for IC90: Staphylococcus aureus, ATCC29213, Staphylococcus aureus (ATCC29213), read-out: IC90 (μg/ml) STA 29213
Summary of the method: as §1

[3] = test system: BSU 43639 (Bacillus subtilis (ATCC43639)); assay: Microtitre plate assay, IC90 determination; format: cell-based; conditions: for IC90: Bacillus subtilis, ATCC43639, Bacillus subtilis (ATCC43639), read-out: IC90 (μg/ml) BSU 43639; for IC90 (μg/ml) BSU 43639: Bacillus subtilis (ATCC43639)
[4] = test system: EFA 29212 (Enterococcus faecalis (ATCC29212)); assay: Microtitre plate assay, IC90 determination; format: cell-based; conditions: for IC90: Enterococcus faecalis, ATCC29212, Enterococcus faecalis (ATCC29212), read-out: IC90 (μg/ml) EFA 29212; for IC90 (μg/ml) EFA 29212: Enterococcus faecalis (ATCC29212)
[5] = test system: LMO 49594 (Listeria monocytogenes (ATCC49594)); assay: Microtitre plate assay, IC90 determination; format: cell-based; conditions: for IC90 (μg/ml) LMO 49594: Listeria monocytogenes (ATCC49594); for IC90: Listeria monocytogenes, ATCC49594, Listeria monocytogenes (ATCC49594), read-out: IC90 (μg/ml) LMO 49594
[6] = test system: PAE 27853 (Pseudomonas aeruginosa (ATCC27853)); assay: Microtitre plate assay, IC90 determination; format: cell-based; conditions: for IC90 (μg/ml) PAE 27853: Pseudomonas aeruginosa (ATCC27853); for IC90: Pseudomonas aeruginosa, ATCC27853, Pseudomonas aeruginosa (ATCC27853), read-out: IC90 (μg/ml) PAE 27853
[7] = test system: SPY 8668 (Streptococcus pyogens (ATCC8668)); assay: Microtitre plate assay, IC90 determination; format: cell-based; conditions: for IC90 (μg/ml) SPY 8668: Streptococcus pyogens (ATCC8668); for IC90: Streptococcus, ATCC8668, Streptococcus pyogens (ATCC8668), read-out: IC90 (μg/ml) SPY 8668
[8] = test system: STA 25923 (Staphylococcus aureus (ATCC25923)); assay: Microtitre plate assay, IC90 determination; format: cell-based; conditions: for IC90 (μg/ml) STA 25923: Staphylococcus aureus (ATCC25923); for IC90: Staphylococcus aureus, ATCC25923, Staphylococcus aureus (ATCC25923), read-out: IC90 (μg/ml) STA 25923
[9] = test system: STA RMETH (methicilline resistant Staphylococcus aureus (MRSA), a clinical isolate from the University of Antwerp); assay: Microtitre plate assay, IC90 determination; format: cell-based; conditions: for IC90: Staphylococcus aureus, MRSA, read-out: IC90 (μg/ml) STA RMETH

Row | Compound | IC90 (μg/ml) SPN 6305 [1] [µg/mL] | IC90 (μg/ml) STA 29213 [2] [µg/mL] | melting point [°C] | IC90 [1] [µg/mL] | IC90 [3] [µg/mL] | IC90 [4] [µg/mL] | IC90 (μg/ml) LMO 49594 [5] [µg/mL] | IC90 (μg/ml) PAE 27853 [6] [µg/mL] | IC90 (μg/ml) SPY 8668 [7] [µg/mL] | IC90 (μg/ml) STA 25923 [8] [µg/mL] | IC90 (μg/ml) STA RMETH [9] [µg/mL] | IC90 (μg/ml) BSU 43639 [3] [µg/mL] | IC90 (μg/ml) EFA 29212 [4] [µg/mL] | IC90 [2] [µg/mL] | IC90 [6] [µg/mL] | IC90 [5] [µg/mL] | IC90 [7] [µg/mL] | IC90 [8] [µg/mL] | IC90 [9] [µg/mL]
1 | COc1nc2ccccc2cc1C(c1ccccc1)C(O)(CCCCN(C)C)c1ccc2ccccc2c1 (stereo not drawn) [Compound 36] | 9.0 (≈ 17.8 µM) | 8.0 (≈ 15.9 µM) | 105 | – | – | – | – | – | – | – | – | – | – | – | – | – | – | – | –
2 | CCN(CC)CCCC(O)(c1ccc2ccccc2c1)C(c1ccccc1)c1cc2cc(Br)ccc2nc1OC (stereo not drawn) [Compound 51] | 11.9 (≈ 19.9 µM) | 59.8 (≈ 100 µM) | – | – | 15 (≈ 25.1 µM) | 59.8 (≈ 100 µM) | – | 47.5 (≈ 79.5 µM) | – | – | – | – | – | – | – | 15 (≈ 25.1 µM) | 13.4 (≈ 22.4 µM) | 15 (≈ 25.1 µM) | 15 (≈ 25.1 µM)
3 | CCN(CC)CCCC(O)(c1ccc2ccccc2c1)C(c1ccccc1)c1cc2cc(Br)ccc2nc1OC (stereo not drawn) [Compound 52] | 2.4 (≈ 4.02 µM) | 15.0 (≈ 25.1 µM) | – | – | – | – | 15.0 (≈ 25.1 µM) | 11.9 (≈ 19.9 µM) | 11.9 (≈ 19.9 µM) | 15.0 (≈ 25.1 µM) | 15.0 (≈ 25.1 µM) | 15.0 (≈ 25.1 µM) | 47.5 (≈ 79.5 µM) | – | – | – | – | – | –
4 | COc1nc2ccc(CO)cc2cc1C(c1ccccc1)C(O)(CCCCN(C)C)c1ccc2ccccc2c1 (stereo not drawn) [Compound 55] | – | – | 174 | 10.7 (≈ 20 µM) | – | – | – | – | – | – | – | – | – | 8.47 (≈ 15.8 µM) | – | – | – | – | –
5 | CNCCCC(O)(c1ccc(F)cc1)C(c1ccccc1)c1cc2cc(Br)ccc2nc1OC (stereo not drawn) [Compound 68] | 1.9 (≈ 3.63 µM) | 8.3 (≈ 15.9 µM) | 188 | – | – | – | – | 8.3 (≈ 15.9 µM) | 1.7 (≈ 3.25 µM) | – | – | – | 18.6 (≈ 35.5 µM) | – | – | – | – | – | –
6 | CCN(CC)CCCCC(O)(CCc1cccc2ccccc12)C(c1ccccc1)c1cc2cc(Br)ccc2nc1OC (stereo not drawn) [Compound 72] | 1.61 (≈ 2.52 µM) | 2.02 (≈ 3.16 µM) | 138 | – | – | – | – | – | – | – | 2.55 (≈ 3.99 µM) | – | – | – | – | – | – | – | –

Other lines, results leading:

Row | IC90 (μg/ml) SPN 6305 [1] [µg/mL] | IC90 (μg/ml) STA 29213 [2] [µg/mL] | melting point [°C] | IC90 [1] [µg/mL] | IC90 [3] [µg/mL] | IC90 [4] [µg/mL] | IC90 (μg/ml) LMO 49594 [5] [µg/mL] | IC90 (μg/ml) PAE 27853 [6] [µg/mL] | IC90 (μg/ml) SPY 8668 [7] [µg/mL] | IC90 (μg/ml) STA 25923 [8] [µg/mL] | IC90 (μg/ml) STA RMETH [9] [µg/mL] | IC90 (μg/ml) BSU 43639 [3] [µg/mL] | IC90 (μg/ml) EFA 29212 [4] [µg/mL] | IC90 [2] [µg/mL] | IC90 [6] [µg/mL] | IC90 [5] [µg/mL] | IC90 [7] [µg/mL] | IC90 [8] [µg/mL] | IC90 [9] [µg/mL] | Compound
7 | – | – | 203 | 53.2 (≈ 100 µM) | – | – | – | – | – | – | – | – | – | – | – | – | – | – | – | COc1nc2ccc(-c3cccnc3)cc2cc1C(c1ccccc1)C(O)(CCCCN(C)C)c1ccccc1 (stereo not drawn) [Compound 42]
8 | 11.6 (≈ 22.3 µM) | 10.4 (≈ 20 µM) | – | – | 41.3 (≈ 79.5 µM) | 26 (≈ 50 µM) | 13.1 (≈ 25.2 µM) | 10.4 (≈ 20 µM) | 9.2 (≈ 17.7 µM) | 13.1 (≈ 25.2 µM) | 13.1 (≈ 25.2 µM) | – | – | – | – | – | – | – | – | COc1nc2ccc(Br)cc2cc1C(c1ccccc1)C(O)(CCCN(C)C)c1ccccc1 (stereo not drawn) [Compound 44]
9 | 52.0 (≈ 100 µM) | 41.3 (≈ 79.5 µM) | – | – | – | – | 41.3 (≈ 79.5 µM) | 52.0 (≈ 100 µM) | 52.0 (≈ 100 µM) | 41.3 (≈ 79.5 µM) | 41.3 (≈ 79.5 µM) | 52.0 (≈ 100 µM) | 52.0 (≈ 100 µM) | – | – | – | – | – | – | COc1nc2ccc(Br)cc2cc1C(c1ccccc1)C(O)(CCCN(C)C)c1ccccc1 (stereo not drawn) [Compound 45]
10 | 57.0 (≈ 100 µM) | – | – | – | – | 50.8 (≈ 89.2 µM) | 45.2 (≈ 79.4 µM) | – | 50.8 (≈ 89.2 µM) | 50.8 (≈ 89.2 µM) | 50.8 (≈ 89.2 µM) | 57.0 (≈ 100 µM) | – | 57 (≈ 100 µM) | 12.8 (≈ 22.5 µM) | – | – | – | – | COc1nc2ccc(Br)cc2cc1C(c1ccccc1)C(O)(CCCN(C)C)c1ccc2ccccc2c1 (stereo not drawn) [Compound 46]
11 | 5.1 (≈ 8.95 µM) | 57.0 (≈ 100 µM) | – | – | – | – | 2.3 (≈ 4.04 µM) | 10.1 (≈ 17.7 µM) | 11.4 (≈ 20 µM) | 12.8 (≈ 22.5 µM) | 12.8 (≈ 22.5 µM) | 11.4 (≈ 20 µM) | 25.4 (≈ 44.6 µM) | – | – | – | – | – | – | COc1nc2ccc(Br)cc2cc1C(c1ccccc1)C(O)(CCCN(C)C)c1ccc2ccccc2c1 (stereo not drawn) [Compound 47]
12 | – | – | – | 14.3 (≈ 25.1 µM) | 14.3 (≈ 25.1 µM) | 57 (≈ 100 µM) | – | – | – | – | – | – | – | 45.2 (≈ 79.4 µM) | 11.4 (≈ 20 µM) | 14.3 (≈ 25.1 µM) | 11.4 (≈ 20 µM) | 14.3 (≈ 25.1 µM) | 14.3 (≈ 25.1 µM) | COc1nc2ccc(Br)cc2cc1C(c1ccccc1)C(O)(CCCN(C)C)c1cccc2ccccc12 (stereo not drawn) [Compound 50]
